The results in this text go back to patent US12662451B2, “Chemical compounds and uses thereof” (GLAXOSMITHKLINE INTELLECTUAL PROPERTY (NO.4) LIMITED, priority 2023, dated 2026).

Where a name gives a salt, the structure may show the parent alone.

The target of the assay is T1, recombinant full-length WRN protein (1-1432) (Homo sapiens, UniProt Q14191).
T1 construct: recombinant full-length WRN protein (1-1432)
Description: WRN unwinding activity, fluorogenic 384-well assay (Example A). Format: biochemical. The note with it: WRN unwinding activity, 4 hr; Table 2; read-out: 4 hr UNW pIC50 (converted). The method, boiled down:
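200 pM enzyme (2× stock) preincubated with compound 4 h at ambient temperature, then 200 μM ATP and 12 nM quenched TAMRA-labelled dsDNA (2× stocks) added for 60 min; EDTA-quenched. Buffer 25 mM Tris pH 8.0, 5 mM NaCl, 2 mM MgCl2. Fluorescence at 525/598 nm; pIC50 from four-parameter fit.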

T1 sequence (Q14191 whole entry): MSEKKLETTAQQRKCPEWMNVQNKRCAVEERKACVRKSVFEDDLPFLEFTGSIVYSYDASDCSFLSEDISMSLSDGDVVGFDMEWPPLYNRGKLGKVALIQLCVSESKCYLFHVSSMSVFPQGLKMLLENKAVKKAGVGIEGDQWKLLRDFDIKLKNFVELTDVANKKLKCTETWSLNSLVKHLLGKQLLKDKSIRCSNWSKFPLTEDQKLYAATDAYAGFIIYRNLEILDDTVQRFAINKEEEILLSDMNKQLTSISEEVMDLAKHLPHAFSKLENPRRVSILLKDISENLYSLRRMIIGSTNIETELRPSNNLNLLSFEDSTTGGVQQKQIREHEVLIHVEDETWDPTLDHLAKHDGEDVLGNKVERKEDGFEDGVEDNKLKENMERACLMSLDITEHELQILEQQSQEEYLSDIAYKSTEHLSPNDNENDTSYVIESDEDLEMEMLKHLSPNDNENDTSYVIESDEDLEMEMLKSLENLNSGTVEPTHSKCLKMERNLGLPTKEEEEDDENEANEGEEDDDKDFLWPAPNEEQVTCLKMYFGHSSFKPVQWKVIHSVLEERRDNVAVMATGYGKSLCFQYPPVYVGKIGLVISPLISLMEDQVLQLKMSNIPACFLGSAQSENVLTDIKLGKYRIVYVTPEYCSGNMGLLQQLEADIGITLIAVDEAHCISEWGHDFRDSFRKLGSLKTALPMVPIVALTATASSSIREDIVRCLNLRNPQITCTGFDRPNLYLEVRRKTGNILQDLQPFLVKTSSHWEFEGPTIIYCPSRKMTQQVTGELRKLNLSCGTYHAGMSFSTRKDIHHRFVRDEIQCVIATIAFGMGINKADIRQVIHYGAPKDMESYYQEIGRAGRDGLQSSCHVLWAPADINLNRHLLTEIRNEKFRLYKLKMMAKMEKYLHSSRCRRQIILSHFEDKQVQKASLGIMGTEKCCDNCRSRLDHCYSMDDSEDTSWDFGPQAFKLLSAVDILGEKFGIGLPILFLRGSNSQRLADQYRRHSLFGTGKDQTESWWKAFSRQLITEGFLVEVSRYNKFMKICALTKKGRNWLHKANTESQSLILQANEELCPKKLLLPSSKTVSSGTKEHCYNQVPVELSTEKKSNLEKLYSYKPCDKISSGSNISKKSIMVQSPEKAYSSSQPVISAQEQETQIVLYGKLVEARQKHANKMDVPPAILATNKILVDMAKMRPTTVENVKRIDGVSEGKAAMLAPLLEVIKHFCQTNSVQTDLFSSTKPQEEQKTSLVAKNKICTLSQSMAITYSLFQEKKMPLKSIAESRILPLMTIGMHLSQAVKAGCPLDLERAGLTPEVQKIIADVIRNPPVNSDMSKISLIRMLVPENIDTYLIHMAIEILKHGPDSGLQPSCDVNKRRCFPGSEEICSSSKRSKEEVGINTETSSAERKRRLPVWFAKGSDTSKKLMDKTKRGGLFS

With `Cc1cc(N(C)S(=O)(=O)c2ccc3c(c2)nc(C)n3C)ccc1[C@@H]1CCC[C@H](C(=O)Nc2ccc(C(F)(F)F)cc2F)[C@H]1C(=O)O` (stereo in doubt) [Example 385, rel-(1R,2R,6S)-2-((2-fluoro-4-(trifluoromethyl)phenyl)carbamoyl)-6-(2-methyl-4-((N,1,2-trimethyl-1H-benzo[d]imidazole)-5-sulfonamido)phenyl)cyclohexane-1-carboxylic acid], the IC50 is 1260 nM.

In the case of `Cc1nc2cc(S(=O)(=O)N(C)c3ccc([C@H]4C[C@]5(CCCO5)C[C@@H](C(=O)Nc5ccc(C(F)(F)F)cc5F)[C@@H]4C(=O)O)cc3)ccc2n1C` (stereo in doubt) [Example 388, rel-(5R,7R,8R,9S)-7-((2-fluoro-4-(trifluoromethyl)phenyl)carbamoyl)-9-(4-((N,1,2-trimethyl-1H-benzo[d]imidazole)-5-sulfonamido)phenyl)-1-oxaspiro[4.5]decane-8-carboxylic acid], the IC50 is 3.98 nM.

In the case of `Cc1nc2cc(S(=O)(=O)N(C)c3ccc([C@H]4C[C@@H]5COC[C@@H]5[C@@H](C(=O)Nc5ccc(C(F)(F)F)cc5F)[C@@H]4C(=O)O)cc3)ccc2n1C` (stereo in doubt) [Example 393, rel-(3aR,4S,5S,6R,7aR)-4-((2-fluoro-4-(trifluoromethyl)phenyl)carbamoyl)-6-(4-((N,1,2-trimethyl-1H-benzo[d]imidazole)-5-sulfonamido)phenyl)octahydroisobenzofuran-5-carboxylic acid], the IC50 was 251 nM.

In the case of `Cc1nc2cc(S(=O)(=O)N(C)c3ccc([C@@H]4C[C@H]5COC[C@H]5[C@H](C(=O)Nc5ccc(C(F)(F)F)cc5F)[C@H]4C(=O)O)cc3)ccc2n1C` (stereo in doubt) [Example 394, rel-(3aR,4S,5S,6R,7aR)-4-((2-fluoro-4-(trifluoromethyl)phenyl)carbamoyl)-6-(4-((N,1,2-trimethyl-1H-benzo[d]imidazole)-5-sulfonamido)phenyl)octahydroisobenzofuran-5-carboxylic acid], the IC50 was 501 nM.

With `O=C(O)[C@@H]1[C@@H](c2ccc(-c3ccccc3CN3CCOCC3)cc2)CCC[C@H]1C(=O)Nc1ccc(C(F)(F)F)cc1F` [Example 4, (1R,2R,6S)-2-((2-fluoro-4-(trifluoromethyl)phenyl)carbamoyl)-6-(2′-(morpholinomethyl)-[1,1′-biphenyl]-4-yl)cyclohexane-1-carboxylic acid], the IC50 was 1000 nM.

As to `O=C(O)[C@@H]1[C@@H](c2ccc(-c3ccn[nH]3)cc2)CCC[C@H]1C(=O)Nc1ccc(C(F)(F)F)cc1F` [Example 5, (1R,2S,6R)-2-(4-(1H-pyrazol-5-yl)phenyl)-6-((2-fluoro-4-(trifluoromethyl)phenyl)carbamoyl)cyclohexane-1-carboxylic acid], the IC50 is 20 nM.

In the case of `O=C(O)[C@@H]1[C@@H](c2ccc(-c3ccncc3)cc2)CCC[C@H]1C(=O)Nc1ccc(C(F)(F)F)cc1F` [Example 7, (1R,2R,6S)-2-((2-fluoro-4-(trifluoromethyl)phenyl)carbamoyl)-6-(4-(pyridin-4-yl)phenyl)cyclohexane-1-carboxylic acid], the IC50 was 100 nM.

Turning to `Cn1cc(-c2ccc([C@H]3CCC[C@@H](C(=O)Nc4ccc(C(F)(F)F)cc4F)[C@@H]3C(=O)O)cc2)cn1` [Example 12, (1R,2R,6S)-2-((2-fluoro-4-(trifluoromethyl)phenyl)carbamoyl)-6-(4-(1-methyl-1H-pyrazol-4-yl)phenyl)cyclohexane-1-carboxylic acid], the IC50 is 63.1 nM.

`Cc1ncccc1-c1ccc([C@H]2CCC[C@@H](C(=O)Nc3ccc(C(F)(F)F)cc3F)[C@@H]2C(=O)O)cc1` [Example 13, (1R,2R,6S)-2-((2-fluoro-4-(trifluoromethyl)phenyl)carbamoyl)-6-(4-(2-methylpyridin-3-yl)phenyl)cyclohexane-1-carboxylic acid, formic acid salt]: the IC50 was 63.1 nM.

For `O=C(O)[C@@H]1[C@@H](c2ccc(-c3cccc(O)n3)cc2)CCC[C@H]1C(=O)Nc1ccc(C(F)(F)F)cc1F` [Example 14, (1R,2R,6S)-2-((2-fluoro-4-(trifluoromethyl)phenyl)carbamoyl)-6-(4-(6-hydroxypyridin-2-yl)phenyl)cyclohexane-1-carboxylic acid], the IC50 is 7.94 nM.

Consider `O=C(O)[C@@H]1[C@@H](c2ccc(-c3cnn4c3CCC4)cc2)CCC[C@H]1C(=O)Nc1ccc(C(F)(F)F)cc1F` [Example 17, (1R,2S,6R)-2-(4-(5,6-dihydro-4H-pyrrolo[1,2-b]pyrazol-3-yl)phenyl)-6-((2-fluoro-4-(trifluoromethyl)phenyl)carbamoyl)cyclohexane-1-carboxylic acid], for which the IC50 is 20 nM.

Consider `O=C(O)[C@@H]1[C@@H](c2ccc(-c3ccccc3COC3CCOCC3)cc2)CCC[C@H]1C(=O)Nc1ccc(C(F)(F)F)cc1F` [Example 19, (1R,2R,6S)-2-((2-fluoro-4-(trifluoromethyl)phenyl)carbamoyl)-6-(2′-(((tetrahydro-2H-pyran-4-yl)oxy)methyl)-[1,1′-biphenyl]-4-yl) cyclohexane-1-carboxylic acid], for which the IC50 was 316 nM.

With `O=C(Cc1cccc(-c2ccc([C@H]3CCC[C@@H](C(=O)Nc4ccc(C(F)(F)F)cc4F)[C@@H]3C(=O)O)cc2)c1)NC1CC1` [Example 20, (1R,2S,6R)-2-(3′-(2-(cyclopropylamino)-2-oxoethyl)-[1,1′-biphenyl]-4-yl)-6-((2-fluoro-4-(trifluoromethyl)phenyl)carbamoyl)cyclohexane-1-carboxylic acid], the IC50 was 6310 nM.

Regarding `O=C(O)[C@@H]1[C@@H](c2ccc(-c3cccc(COC4CCOCC4)c3)cc2)CCC[C@H]1C(=O)Nc1ccc(C(F)(F)F)cc1F` [Example 21, (1R,2R,6S)-2-((2-fluoro-4-(trifluoromethyl)phenyl)carbamoyl)-6-(3′-(((tetrahydro-2H-pyran-4-yl)oxy)methyl)-[1,1′-biphenyl]-4-yl) cyclohexane-1-carboxylic acid], the IC50 was 7940 nM.

Take `Cc1cn2nc(-c3ccc([C@H]4CCC[C@@H](C(=O)Nc5ccc(C(F)(F)F)cc5F)[C@@H]4C(=O)O)cc3)ccc2n1` [Example 22, (1R,2R,6S)-2-((2-fluoro-4-(trifluoromethyl)phenyl)carbamoyl)-6-(4-(2-methylimidazo[1,2-b]pyridazin-6-yl)phenyl)cyclohexane-1-carboxylic acid]: the IC50 was 1000 nM.

Take `O=C(O)[C@@H]1[C@@H](c2ccc(-c3cnn(CC4CC4)c3)cc2)CCC[C@H]1C(=O)Nc1ccc(C(F)(F)F)cc1F` [Example 23, (1R,2S,6R)-2-(4-(1-(cyclopropylmethyl)-1H-pyrazol-4-yl)phenyl)-6-((2-fluoro-4-(trifluoromethyl)phenyl)carbamoyl)cyclohexane-1-carboxylic acid]: the IC50 was 126 nM.

For `COC(=O)c1cncc(-c2ccc([C@H]3CCC[C@@H](C(=O)Nc4ccc(C(F)(F)F)cc4F)[C@@H]3C(=O)O)cc2)c1` [Example 26, (1R,2R,6S)-2-((2-fluoro-4-(trifluoromethyl)phenyl)carbamoyl)-6-(4-(5-(methoxycarbonyl)pyridin-3-yl)phenyl)cyclohexane-1-carboxylic acid], the IC50 was 10000 nM.

Take `Cc1nsc(-c2ccc([C@H]3CCC[C@@H](C(=O)Nc4ccc(C(F)(F)F)cc4F)[C@@H]3C(=O)O)cc2)c1O` [Example 28, (1R,2R,6S)-2-((2-fluoro-4-(trifluoromethyl)phenyl)carbamoyl)-6-(4-(4-hydroxy-3-methylisothiazol-5-yl)phenyl)cyclohexane-1-carboxylic acid]: the IC50 was 31.6 nM.

Take `O=C(O)[C@@H]1[C@@H](c2ccc(-c3ccc4nnnn4n3)cc2)CCC[C@H]1C(=O)Nc1ccc(C(F)(F)F)cc1F` [Example 29, (1R,2R,6S)-2-((2-fluoro-4-(trifluoromethyl)phenyl)carbamoyl)-6-(4-(tetrazolo[1,5-b]pyridazin-6-yl)phenyl) cyclohexane-1-carboxylic acid]: the IC50 was 3980 nM.

As to `O=C(O)[C@@H]1[C@@H](c2ccc(-c3ccc4nncn4n3)cc2)CCC[C@H]1C(=O)Nc1ccc(C(F)(F)F)cc1F` [Example 30, (1R,2S,6R)-2-(4-([1,2,4]triazolo[4,3-b]pyridazin-6-yl)phenyl)-6-((2-fluoro-4-(trifluoromethyl)phenyl)carbamoyl)cyclohe xane-1-carboxylic acid], the IC50 is 6310 nM.

In the case of `COC(=O)c1sccc1-c1ccc([C@H]2CCC[C@@H](C(=O)Nc3ccc(C(F)(F)F)cc3F)[C@@H]2C(=O)O)cc1` [Example 33, (1R,2R,6S)-2-((2-fluoro-4-(trifluoromethyl)phenyl)carbamoyl)-6-(4-(2-(methoxycarbonyl)thiophen-3-yl)phenyl)cyclohexane-1-carboxylic acid], the IC50 was 126 nM.

Turning to `O=C(O)[C@@H]1[C@@H](c2ccc(-c3ncnc4sccc34)cc2)CCC[C@H]1C(=O)Nc1ccc(C(F)(F)F)cc1F` [Example 34, (1R,2R,6S)-2-((2-fluoro-4-(trifluoromethyl)phenyl)carbamoyl)-6-(4-(thieno[2,3-d]pyrimidin-4-yl)phenyl)cyclohexane-1-carboxylic acid], the IC50 was 2510 nM.

Regarding `O=C(O)[C@@H]1[C@@H](c2ccc(-c3cccnn3)cc2)CCC[C@H]1C(=O)Nc1ccc(C(F)(F)F)cc1F` [Example 38, (1R,2R,6S)-2-((2-fluoro-4-(trifluoromethyl)phenyl)carbamoyl)-6-(4-(pyridazin-3-yl)phenyl)cyclohexane-1-carboxylic acid], the IC50 was 1.58 nM.

In the case of `COC(=O)N1CCc2c(cnnc2-c2ccc([C@H]3CCC[C@@H](C(=O)Nc4ccc(C(F)(F)F)cc4F)[C@@H]3C(=O)O)cc2)C1` [Example 40, (1R,2R,6S)-2-((2-fluoro-4-(trifluoromethyl)phenyl)carbamoyl)-6-(4-(6-(methoxycarbonyl)-5,6,7,8-tetrahydropyrido[3,4-d]pyridazin-1-yl)phenyl)cyclohexane-1-carboxylic acid], the IC50 was 10000 nM.
